Laboratory results published in EP4631938A1, “NITROGEN-CONTAINING HETEROCYCLE WITH SEROTONIN RECEPTOR-BINDING ACTIVITY AND CARBOCYCLIC DERIVATIVE” (Shionogi & Co., Ltd, priority 2022, dated 2024).

Assays:
[1] = target: T1, human recombinant 5-HT2C receptor (Homo sapiens, UniProt P28335); assay: Test Example 2-2: 5-HT2C receptor binding inhibition test ([3H]-Mesulergine; non-specific ligand Ketanserin); details: non-specific binding with 500 µmol/L Ketanserin, 37°C, 2 hours
T1 construct: expressed in transfected cells; host or cells: Jump-In HEK cells (membrane preparation)
T1 sequence (P28335 33-458): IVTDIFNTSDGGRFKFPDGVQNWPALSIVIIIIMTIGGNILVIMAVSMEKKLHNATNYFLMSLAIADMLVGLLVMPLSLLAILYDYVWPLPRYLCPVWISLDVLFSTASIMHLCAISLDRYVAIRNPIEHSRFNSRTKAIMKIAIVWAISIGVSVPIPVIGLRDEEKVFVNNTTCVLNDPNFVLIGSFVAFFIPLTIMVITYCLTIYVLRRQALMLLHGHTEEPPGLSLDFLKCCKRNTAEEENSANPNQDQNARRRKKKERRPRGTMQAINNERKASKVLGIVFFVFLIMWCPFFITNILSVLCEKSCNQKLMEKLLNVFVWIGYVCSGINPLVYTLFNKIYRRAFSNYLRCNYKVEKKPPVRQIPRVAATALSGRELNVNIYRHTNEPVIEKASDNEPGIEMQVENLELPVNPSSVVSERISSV
Method: The Kd value is calculated when the lot of the cell membrane is changed. 1 mmol/L non-specific binding calculating compound dissolved in DMSO or DMSO is previously dispensed to the microplate by 0.5 µL, and the cell membrane is diluted with an Assay buffer. The radioactive ligand solution is diluted step by step, and counts are checked with a liquid scintillator. The Assay buffer containing diluted cell membranes is dispensed by 50 µL/well into the microplate. The radioactive ligand solution is then dispensed by 50 µL/well into the microplate and the plate is sealed. The microplate is allowed to stand at 37°C for 2 hours. During this time, 50 mmol/L Tris-HCl (pH 7.4) is dispensed by 50 µL/well into the UniFilter plate and allowed to stand at 4°C for 1 hour or longer. Thereafter, filtration is performed with a Cell Harvester (PerkinElmer). The radioactive ligand solution is dispensed by 10 µL/well into empty wells of the UniFilter plate. After drying the UniFilter plate at room temperature, MicroScinti20 is dispensed by 50 µL/well into the UniFilter plate, and the plate is sealed. UniFilter plate is allowed to stand at room temperature overnight. The radioactivity of [^3H]-Mesulergine bound to the 5-HT2C receptor is measured using Microbeta2 (PerkinElmer) at a measurement time of 1 min/well. The Saturation curve is drawn from the measured value, and the Kd value is calculated from the slope of the Scatchard Plot.
A compound solution dissolved in DMSO is dispensed to a microplate by 0.5 µL, and a cell membrane and a hot ligand are each diluted with an Assay buffer. The Assay buffer containing diluted cell membrane is then dispensed by 50 µL/well into the microplate. The radioactive ligand solution is then dispensed by 50 µL/well into the microplate and the plate is sealed. The microplate is then allowed to stand at 37°C for 2 hours. During this time, 50 mmol/L Tris-HCl (pH 7.4) is dispensed by 50 µL/well into the UniFilter plate and allowed to stand at 4°C for 1 hour or longer. Thereafter, filtration is performed with a Cell Harvester (PerkinElmer). After drying the UniFilter plate at room temperature, MicroScinti20 is dispensed by 50 µL/well into the UniFilter plate, and the plate is sealed. UniFilter plate is allowed to stand at room temperature overnight. The radioactivity of [^3H]-Mesulergine bound to the 5-HT2C receptor is measured using Microbeta2 (PerkinElmer) at a measurement time of 1 min/well. Non-specific binding is calculated from the radioactivity of [^3H]-Mesulergine in the presence of 500 µmol/L Ketanserin of unlabeled ligand, and total binding is calculated from the radioactivity of [^3H]-Mesulergine in the absence of the compound of the present invention (Vehicle). Finally, the Ki value is calculated from the dose-response curve.
(The binding activity of the compound according to the present invention is calculated from the following binding inhibition rate (%).) Inhibition rate (%) = [1−(c−a)/(b−a)] × 100 [formula] • a; average cpm of non-specific binding • b; average cpm of total binding • c; cpm in the presence of the test compound
The compounds of the present invention were tested essentially as described above.

[2] = target: T2, human recombinant 5-HT2A receptor (Homo sapiens, UniProt P28223); assay: Test Example 1-2: 5-HT2A receptor binding inhibition test ([3H]-Ketanserin; non-specific ligand Ketanserin); details: [3H]-Ketanserin; non-specific binding with 500 µmol/L Ketanserin; room temperature (25°C), 1.5 hours; read-out: h 5-HT2A Ki
T2 construct: expressed in transfected cells; host or cells: Jump-In HEK cells (membrane preparation)
How it was run: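 Membranes expressing the receptor were incubated with [3H]-ketanserin and compound for 1.5 h at 25 °C, then filtered onto plates presoaked in 50 mmol/L Tris-HCl pH 7.4 and scintillation-counted. Non-specific binding was defined with 500 µmol/L unlabeled ketanserin. Ki was taken from dose-response curves, with Kd set for each membrane lot by Scatchard analysis.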

T2 sequence (P28223 whole entry): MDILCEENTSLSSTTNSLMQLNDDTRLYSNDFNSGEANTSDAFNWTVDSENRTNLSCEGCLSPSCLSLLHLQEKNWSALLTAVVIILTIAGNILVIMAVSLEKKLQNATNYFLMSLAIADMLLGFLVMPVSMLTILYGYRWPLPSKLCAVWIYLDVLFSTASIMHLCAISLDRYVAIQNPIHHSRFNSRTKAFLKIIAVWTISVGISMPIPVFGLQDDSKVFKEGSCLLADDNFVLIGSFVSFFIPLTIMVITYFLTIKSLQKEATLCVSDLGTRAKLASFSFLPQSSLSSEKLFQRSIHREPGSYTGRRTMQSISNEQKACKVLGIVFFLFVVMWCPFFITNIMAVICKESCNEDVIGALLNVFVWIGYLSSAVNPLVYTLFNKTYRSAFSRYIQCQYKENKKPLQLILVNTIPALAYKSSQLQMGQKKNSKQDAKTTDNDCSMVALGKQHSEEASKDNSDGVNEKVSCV

Ki [1] [nM]	Ki [2] [nM]	SMILES
0.266	0.292	Cn1cnc(Br)c1-c1cc(Nc2ncc(C(F)(F)F)cc2F)ccc1OCCO [Compound I-027]
4.96	0.209	Cc1cnc(Nc2ccc(OCCO)c(-c3c(Br)cnn3C)c2)s1 [Compound I-028]
1.92	0.344	Cn1ncc(Br)c1-c1cc(Nc2nc(C(F)(F)F)cs2)ccc1OCCO [Compound I-036]
1.16	0.175	Cn1ncc(Br)c1-c1cc(Nc2ncc(Cl)s2)ccc1OCCO [Compound I-040]
0.165	0.188	Cn1ncc(Br)c1-c1cc(Nc2ncc(Br)cc2F)ccc1OCCO [Compound I-043]
15.1	0.626	Cn1ncc(Br)c1-c1cc(Nc2ncc(C#N)cc2F)ccc1OCCO [Compound I-044]
3.77	0.235	Cn1ncc(Br)c1-c1cc(Nc2ncccc2F)ccc1OCCO [Compound I-045]
4.26	0.207	Cn1ncc(Br)c1-c1cc(Nc2cc(C(F)(F)F)ccn2)ccc1OCCO [Compound I-047]
0.313	0.163	Cn1ncc(Br)c1-c1cc(Nc2ccc(C3CC3)cn2)ccc1OCCO [Compound I-048]
0.641	0.168	Cc1cnc(Nc2ccc(OCCO)c(-c3c(Br)cnn3C)c2)c(F)c1 [Compound I-049]

Further lines, the compound ahead of its results:

SMILES	Ki [1] [nM]	Ki [2] [nM]
Cc1nn(C)c(C)c1-c1cc(Nc2ncc(C(F)(F)F)cc2F)ccc1OCCO [Compound I-022]	48.4	0.428
Cc1n[nH]c(C)c1-c1cc(Nc2ncc(C(F)(F)F)cc2F)ccc1OCCO [Compound I-023]	3.62	0.246
Cc1ccncc1-c1cc(Nc2ncc(C(F)(F)F)cc2F)ccc1OCCO [Compound I-024]	7.35	0.607
Cc1ccc(-c2cc(Nc3ncc(C(F)(F)F)cc3F)ccc2OCCO)c(C)n1 [Compound I-025]	3.7	0.25
OCCOc1ccc(Nc2ncc(C(F)(F)F)cc2F)cc1-c1ccnc(F)c1Cl [Compound I-026]	7.89	0.894
Cn1ncc(Br)c1-c1cc(Nc2nc3ccccc3s2)ccc1OCCO [Compound I-029]	0.636	0.286
Cc1cncc(C)c1-c1cc(Nc2ncc(C(F)(F)F)cc2F)ccc1OCCO [Compound I-030]	0.881	0.31
Cn1cnc(Br)c1-c1cc(Nc2ncc(F)cc2F)ccc1OCCO [Compound I-032]	8.32	0.734
Cc1nnn(C)c1-c1cc(Nc2ncc(C(F)(F)F)cc2F)ccc1OCCO [Compound I-033]	3.43	0.376
Cc1cccc(C)c1-c1cc(Nc2ncc(C(F)(F)F)cc2F)ccc1OCCO [Compound I-034]	3.57	0.77
Cc1cnn(C)c1-c1cc(Nc2ncc(C(F)(F)F)cc2F)c(Oc2ccn(C)n2)cc1OCCO [Compound I-035]	2.35	2.54
Cn1ncc(Br)c1-c1cc(Nc2ncc(C#N)s2)ccc1OCCO [Compound I-037]	1.4	0.289
Cn1ncc(Br)c1-c1cc(Nc2ncc(C3CC3)s2)ccc1OCCO [Compound I-038]	0.666	0.215
Cn1ncc(Br)c1-c1cc(Nc2ncc(-c3ccccc3)s2)ccc1OCCO [Compound I-039]	0.245	0.319
Cn1ncc(Br)c1-c1cc(Nc2nc3ccccc3o2)ccc1OCCO [Compound I-041]	8.83	0.155
Cn1ncc(Br)c1-c1cc(Nc2nc3ccccc3n2C)ccc1OCCO [Compound I-042]	8.35	0.194
COC(=O)c1cnc(Nc2ccc(OCCO)c(-c3c(Br)cnn3C)c2)c(F)c1 [Compound I-046]	1.33	0.318
Cc1ncnc(C)c1-c1cc(Nc2ncc(C(F)(F)F)cc2F)ccc1OCCO [Compound I-050]	1.69	0.395
Cn1ncc(C#N)c1-c1cc(Nc2ncc(Cl)cc2F)ccc1OCCO [Compound I-051]	2.6	0.318
